Usually solubility stands for the dissolved amount per volume that the medium holds.

This is an account of results in patent publication US20130059805A1, “COMPOSITION COMPRISING AN AMORPHOUS NON-CRYSTALLINE GLASS FORM OF AZITHROMYCIN” (North-West University, priority 2009, published 2013).

In brackets after ≈: the same amount, converted by molar mass. Like-named read-outs stand apart in the source and are kept apart here.

A short description of series [1]: Solubility in four media (excess solid, 37 degrees Celsius, 24 h, HPLC assay). In kind it is physicochemical. The note with it: for solubility at 24 h: 37 °C, thermodynamic from solid. Here is the method:
In further analysis of the amorphous non-crystalline glass form (Form-II) of azithromycin, each of five replicate test tubes were filled with an excess of amorphous non-crystalline glass form (Form-II) of azithromycin and 10 ml of solubility medium. The process was performed with each of the following mediums: 0.1 N hydrochloric acid (pH 1), acetate buffer (pH 4.5), phosphate buffer (pH 6.8) and distilled water. This method was also used for testing the prior art azithromycin dihydrate.
The test tubes were then fixed to a rotating axis (54 rpm) and submerged in a water bath at 37 degrees Celsius±2 degrees Celsius for twenty-four hours. The contents of the test tubes were filtered through a 0.45 μm filter and the respective filtrates were subsequently diluted.
The concentrations of the filtrates were determined by HPLC (high performance liquid chromatography) assay. The HPLC assay was performed utilising a mobile phase (600:400) consisting of 8.7 g/L potassium dihydrogen phosphate buffer (pH 4.5) and acetonitrile. A Luna C18 250 mm×4.6 mm column was used with a flow rate of 0.5 mL/min and a wavelength of 210 nm. Validation of this method provided a linear regression r^2 of 0.9999.

Series [2] is described as follows: Structural stability study at 40° C. and 75% relative humidity (XRPD, DSC, thermal microscopy). Format: physicochemical. Conditions: 4 week testing period. The text has this:
FIG. 5: is a characteristic XRPD (x-ray powder diffraction pattern) of amorphous non-crystalline glass form (Form-II) of azithromycin taken over a period of time wherein 0 is at time of preparation, 1 is week 1, 2 is week 2, 3 is week 3 and 4 is week 4 (Vertical axis: intensity (Lin (counts)); Horizontal axis: 2 Theta (degrees));
FIG. 12: is a DSC (differential scanning calorimetry) trace of amorphous non-crystalline glass form (Form-II) of azithromycin, taken over a period of time, according to one embodiment of the invention wherein 0 is at time of preparation, 1 is week 1, 2 is week 2, 3 is week 3 and 4 is week 4 (Vertical axis: Heat flow (mW); Horizontal axis: temperature (degrees Celsius));
FIG. 13: is a thermal microscopy image (at 25 degrees Celsius) of amorphous non-crystalline glass form (Form-II) of azithromycin taken in the fourth week after preparation according to one embodiment of the invention; and […]

For series [3] the following is noted: background statement; cited from earlier work.
The conditions of series [4]: oral; cited from earlier work.
For series [5] the following is noted: 0.1 N HCl; cited from earlier work.

Take `CC[C@H]1OC(=O)[C@H](C)[C@@H](O[C@H]2C[C@@](C)(OC)[C@@H](O)[C@H](C)O2)[C@H](C)[C@@H](O[C@@H]2O[C@H](C)C[C@H](N(C)C)[C@H]2O)[C@](C)(O)C[C@@H](C)CN(C)[C@H](C)[C@@H](O)[C@]1(C)O`: in series [1] (0.1 N HCl (pH 1), 37 degrees Celsius), the “solubility in 0.1 N HCl” value is 45.703 ± 0.917 mg/mL (≈ 61 mM). The “solubility in acetate buffer (pH 4.5)” value in series [1] (acetate buffer pH 4.5, 37 degrees Celsius) is 18.045±0.485 mg/mL. Besides, the “solubility in distilled water” value in series [1] (distilled water, 37 degrees Celsius) came out at 1.357 ± 0.233 mg/mL (≈ 1.81 mM). Further, in series [1] (phosphate buffer pH 6.8, 37 degrees Celsius), the “solubility in phosphate buffer (pH 6.8)” value is listed as 10.968±0.182 mg/mL. For the same molecule, in series [2], the “structural stability (solid form)” value is “structurally stable”.

Turning to `CC[C@H]1OC(=O)[C@H](C)[C@@H](O[C@H]2C[C@@](C)(OC)[C@@H](O)[C@H](C)O2)[C@H](C)[C@@H](O[C@@H]2O[C@H](C)C[C@H](N(C)C)[C@H]2O)[C@](C)(O)C[C@@H](C)CN(C)[C@H](C)[C@@H](O)[C@]1(C)O` [azithromycin raw material (dihydrate), azithromycin dihydrate], the solubility at 24 h in series [1] (0.1 N hydrochloric acid, simulated gastric fluid, 0.1 N HCl (pH 1), 37 degrees Celsius, read-out: solubility in 0.1 N HCl) was 40.81 ± 0.368 mg/mL; in series [1] (aqueous buffer, acetate buffer pH 4.5, 37 degrees Celsius, read-out: solubility in acetate buffer (pH 4.5)), 17.97 ± 0.113 mg/mL; in series [1] (aqueous buffer, phosphate buffer pH 6.8, 37 degrees Celsius, read-out: solubility in phosphate buffer (pH 6.8)) it was 8.442 ± 0.069 mg/mL; in series [1] (distilled water, 37 degrees Celsius, read-out: solubility in distilled water), 0.148 ± 0.028 mg/mL. The “water solubility (in words)” value in series [3] is reported as “poorly soluble in water”.

Turning to `CC[C@H]1OC(=O)[C@H](C)[C@@H](O[C@H]2C[C@@](C)(OC)[C@@H](O)[C@H](C)O2)[C@H](C)[C@@H](O[C@@H]2O[C@H](C)C[C@H](N(C)C)[C@H]2O)[C@](C)(O)C[C@@H](C)CN(C)[C@H](C)[C@@H](O)[C@]1(C)O` [azithromycin, (2R,3S,4R,5R,8R,10R,11R,12S,13S,14R)-2-ethyl-3,4,10-trihydroxy-3,5,6,8,10,12,14-heptamethyl-15-oxo-11-{[3,4,6-trideoxy-3-(dimethylamino)-β-D-xylo-hexopyranosyl]oxy}-1-oxa-6-azacyclopentadec-13-yl 2,6-dideoxy-3-C-methyl-3-O-methyl-α-L-ribo-hexopyranoside], the “bioavailability (share of an orally administered dose reaching systemic circulation)” value in series [4] is listed as 38%. Moreover, the acid stability entry in series [5] is “acid-stable”.
